Like-named read-outs stand apart in the source and are kept apart here.
Assays:
Format in all cases: cell-based, human
MCF-12A cells = assay: In vitro cytotoxicity assessment, alamar blue assay, 24-h exposure; details: for Decrease in activity towards MCF-12A cells relative to MCF-7 cells (selectivity): IC50 MCF-12A vs IC50 MCF-7, 24 h
Description: The MCF-7 (human breast cancer) and MCF-12A (non-tumourigenic human breast) cell lines were obtained from the Technological University Dublin (TUDublin, City Campus) internal cell bank and commercially from the American Type Culture Collection (ATCC), respectively. Both cell lines were cultured using Dulbecco’s Modified Eagle Medium/Nutrient Mixture F-12 Ham (DMEM-F12) (Sigma, Ireland) (Cat# D6421) media. The MCF-7 media was supplemented with 10% Foetal Bovine Serum (Sigma, Ireland) (Cat# F7524) and 1% L-Glutamine (Sigma, Ireland) (Cat# 592020C). The MCF-12A media was supplemented with 5% Equine Serum (Sigma, Ireland) (Cat# H0146) 1.25% L-Glutamine (Sigma, Ireland) (Cat# 592020C), 20 ng/ml Human Epidermal Growth Factor (Thermo Fisher Scientific, Ireland) (Cat# PHG0313), 0.01 mg/ml insulin (Thermo Fisher Scientific, Ireland)(Cat# 12585014) and 500 ng/ml hydrocortisone (Sigma, Ireland) (Cat# H0888). The cells were grown in T75 culture flasks (Sarstedt, Germany) (Cat# 83.3911.002) and were incubated in a 5% CO2 atmosphere at 37 ℃. The cells were monitored daily, and once 80–90% confluence was reached, they were subcultured with an enzymatic dissociation method using trypsin. Both cell lines were routinely subcultured for 1 week prior to beginning experimental work, to ensure the cells had adapted to the environment.
The MCF-7 and MCF-12A cells were seeded at a density of 1 × 10^4 in 96-well flat bottom plates (Sarstedt, Germany) (Cat# 83.3924) and incubated in a 5% CO2 atmosphere at 37 ℃ for 24 h prior to exposure to the complexes. Following the incubation period, the media was removed, and cells were washed with sterile phosphate-buffered saline (PBS). […] All agents were diluted in supplemented cell culture media, and the cells were exposed to a concentration range of 0.5 μM–100 μM for 24 h in the conditions outlined previously. Following the exposure period, the drug-containing media was removed, and cells were washed three times with PBS, ensuring complete removal of the test agents. A 5% working solution of Alamar Blue (Thermo Fisher Scientific, Ireland) (Cat# DAL1100) was prepared in dark conditions using unsupplemented cell culture media. 100 μl of the solution was added to each well, and the cells were incubated for 3 h. Following incubation, absorbance values were obtained using a Varioskan Lux (Thermo Scientific, USA) at 570 nm and 600 nm wavelengths. Each exposure was carried out in triplicate plates and was repeated three independent times.
The software packages Microsoft^Ⓡ Excel (USA) and GraphPad Prism (Ver. 10.0.3) (GraphPad, USA) were used to analyse the alamar blue data. The treated sample values were first normalised to the negative control values. After normalisation, the mean and standard deviations (SD) were established using Microsoft^Ⓡ Excel. The statistical analysis package GraphPad was then used to determine the IC25 and IC50 concentrations. […] A p value of 0.05 or lower is considered to be statistically significant.

[1] = system: apoptotic genes in MCF-12A cells; assay: Apoptosis-related gene expression, qRT-PCR; details: IC25 concentration, 24 h, relative to negative control
Description: (§1) A broad scope of molecular targets involved in the apoptotic pathway were selected for analysis using qRT-PCR including initiators, mediators and inhibitors. These gene targets along with their cellular location and associated primer set are outlined in Table 2. Primer sets for each gene were designed using NCBI nucleotide sequences and the Primer3 application (Table 3). Once designed, the primers were synthesised by Sigma Aldrich, Ireland.
(§2) MCF-7 and MCF-12A cells were seeded at a density of 1 × 10^5 in T25 flasks and incubated for 24 h allowing for attachment. Following incubation, the seeding media was removed, and the cells were washed with PBS. […] Post-exposure, RNA was isolated from the cells. Tri-reagent^Ⓡ (Sigma, Ireland) (Cat# T9424) was added to the cells followed by centrifugation at 300 g for 5 min. The RNA was precipitated using chloroform, followed by centrifugation and washing of the pellet using 75% ethanol. The RNA was resuspended in 30 μl of nuclease-free water. The RNA was either used immediately for qRT-PCR or stored at −80 ℃. The RNA from each sample was quantified using the NanoDrop™ 2000 Spectrophotometer (Thermo Fisher Scientific, Ireland). The A260/A230 ratio was measured to ensure the purity of each sample. Prior to cDNA synthesis, all samples were adjusted to a concentration of 100 ng. The RNA was then reverse transcribed into cDNA using the Quanta Biosciences Kit (Quanta Biosciences, USA) (Cat# 95047). Using the SimpliAmp Thermal Cycler (Applied Biosystems; Thermo Fisher Scientific, Ireland), the following settings were applied: 5 min at 22 ℃, 30 min at 42 ℃, 5 min at 85 ℃; samples were then maintained in an indefinite hold at 4 ℃ prior to being used for quantitative real-time PCR. The cDNA templates were amplified and analysed using SYBR™ Green (Fisher Scientific, UK) (Cat#10187094). Using the 7500 fast Real-Time PCR System (Applied Biosystems, USA), the following thermal cycling setting were applied for amplification: Pre-Incubation (1 cycle) 95 ℃, 5 Minutes, 4.4 ℃ ramp; Amplification (45 cycles) 95 °C 10 s ramp 4.4 °C, 60 °C 10 s ramp 2.2 °C, 72 °C 10 s ramp 4.4 °C; Melting Curve (1 cycle) 95 °C 5 s ramp 4.4 °C, 65 °C 1 min ramp 2.2 °C, 97 °C continuous ramp 0.11 °C acquisition 10 per °C; Cooling (1 cycle) 40 °C 10 s ramp 1.5 °C. Two reference genes, actin and tubulin, were employed to determine the expression of the target genes. No template controls were included to confirm the absence of template contamination and auto-fluorescence. Each PCR plate contained three technical replicates per sample and gene target, with each experiment repeated three independent times using three individual biological replicates.
(§3) qRT-PCR data was analysed by first using the Vandesompele method to calculate the geometric mean of Ct values for the reference genes, actin and tubulin. These values were used for normalisation of the target gene expression values which were then calculated using the Livak and Schmittgen formula: 2^−ΔCt1(test)−ΔCt2(control) (Livak and Schmittgen [2001]; Vandesompele et al. [2002]).
(§4) The expression profiles (Fig. 4) display the log(2) transformed mean expression value for each gene target relative to the negative control. Expression values for each target were determined relative to the geometric means of reference genes. […] Each graph contains a threshold line, set at the value of one, this represents baseline expression levels of genes.

[2] = system: apoptotic genes in MCF-7 cells; assay: Apoptosis-related gene expression, qRT-PCR; details: MCF-7, IC25 concentration, 24 h, relative to negative control
Description: as §1, §2, §3, §4

[3] = MCF-12A, 24-h exposure, 25% reduction in metabolic activity, mean ± SD (N = 3)
[4] = MCF-12A, 24-hour exposure, per one metal centre, mean ± S.D. (N=3)
[5] = MCF-12A, 24-hour exposure, per one metal centre, mean ± S.D. (N=3), read-out: IC50 calculated per one metal centre

Compound | IC50 (MCF-12A cells; Homo sapiens, MCF-12A, 24 h, read-out: IC50 calculated per one metal centre) [µM] | Cytotoxic activity IC25 ± SD (MCF-12A cells; [3]) [µM] | IC25 calculated per one metal centre (MCF-12A cells; [4]) [µM] | Caspase gene expression (caspase-9, -8, -3) [1] | Pro-apoptotic gene expression (BID, BIM, BAD, BAX) [1] | Caspase gene expression (caspase-9, -8, -3) [2] | Pro-apoptotic gene expression (BID, BIM, BAD, BAX) [2] | Cytotoxic activity IC25 ± SD (MCF-12A cells) [µM] | IC50 (MCF-12A cells) [µM] | IC50 (MCF-12A cells; [5]) [µM] | Decrease in activity towards MCF-12A cells relative to MCF-7 cells (selectivity) (MCF-12A cells; listed as 7) | Decrease in activity towards MCF-12A cells relative to MCF-7 cells (selectivity) (MCF-12A cells; listed as complex 7) | IC50 (MCF-12A cells; MCF-12A, 24-h exposure, 50% reduction in metabolic activity, mean ± SD (N = 3), read-out: Cytotoxic activity IC50 ± SD) [µM]
c1cnc2c(c1)ccc1cccnc12 [Phen, 1,10-Phenanthroline] | 20.9 ± 1.96 | 11.14 ± 4.39 | 11.14 ± 4.39 | all caspases seen to be activated | pro-apoptotic BIM and BAD were upregulated | all caspases seen to be activated | pro-apoptotic BIM and BAD were upregulated | – | – | – | – | – | –
O=C([O-])CCCCCCC(=O)[O-].[Cu+2].[Cu+2].[O-][Cl+3]([O-])([O-])[O-].[O-][Cl+3]([O-])([O-])[O-].c1cnc2c(c1)ccc1cccnc12.c1cnc2c(c1)ccc1cccnc12.c1cnc2c(c1)ccc1cccnc12.c1cnc2c(c1)ccc1cccnc12 [Complex 1, [Cu2(oda)(phen)4](ClO4)2] | – | – | 9.72 ± 3.82 | expressed caspase 8 | upregulated expression of the gene encoding BH3-only protein BID | expressing initiator caspase 9 | upregulated expression of the gene encoding BH3-only protein BID | 4.86 ± 1.91 | 6.14 ± 0.37 | 12.3 ± 0.74 | – | – | –
O=C([O-])CCCCCCC(=O)[O-].[Cu+2].c1cnc2c(c1)ccc1cccnc12.c1cnc2c(c1)ccc1cccnc12 [Complex 2, [Cu(oda)(phen)2]] | – | 0.68 ± 0.13 | 0.68 ± 0.13 | expressed caspase 8 | upregulated expression of the gene encoding BH3-only protein BID | expressing initiator caspase 9 | upregulated expression of the gene encoding BH3-only protein BID | – | – | 1.65 ± 0.13 | – | – | –
O=C([O-])CCCCCCC(=O)[O-].[Ag+].[Ag+].c1cnc2c(c1)ccc1cccnc12.c1cnc2c(c1)ccc1cccnc12.c1cnc2c(c1)ccc1cccnc12 [Complex 4, [Ag2(oda)(phen)3]] | – | 4.91 ± 0.14 | 9.82 ± 0.28 | expression of caspase-9 and caspase-3 | significantly elevated BIM and BAD expression | expression of caspase-9 and caspase-3 | – | – | – | – | – | – | –
O=C([O-])CCCCCCCCCC(=O)[O-].[Ag+].[Ag+].c1cnc2c(c1)ccc1cccnc12.c1cnc2c(c1)ccc1cccnc12.c1cnc2c(c1)ccc1cccnc12 [Complex 5, [Ag2(udda)(phen)3]] | – | 5.52 ± 0.51 | 11.04 ± 1.0 | expression of caspase-9 and caspase-3 | significantly elevated BIM and BAD expression | expression of caspase-9 and caspase-3 | – | – | – | – | – | – | –
{[Mn2(oda)3(phen)4]^2−[Mn2(oda)(phen)4 (H2O)2]^2+} [Complex 7] | – | 0.38 ± 0.39 | 1.52 ± 1.56 | Initiator caspase 9 was expressed by MCF-12A cells, but executioner caspase-3 was not found to be expressed | only shown to express BIM | No caspase activity was observed | expression of both BID and BIM | – | – | 104 ± 30.8 | almost tenfold reduction in cytotoxicity | almost tenfold decrease in activity | 26.1 ± 7.7

Reference: publication PMC12119673, “Apoptotic cell death induced by copper (II), manganese (II) and silver (I) complexes containing bridging dicarboxylate and 1,10-phenanthroline ligands: one of the multi-modes of anticancer activity?” (Biometals, 2025)
